The test system of data set [1] is Sprague-Dawley rats. Description: MI-induced heart failure by coronary artery ligation in rats, Fc-ELA-32. Format: in vivo, rat. The procedure: It was studied whether Fc-ELA fusion proteins have cardioprotective activities in heart failure caused by myocardial infarction (MI) in rats. MI was inflicted by standard left anterior descending coronary artery ligation (CAL) in Sprague-Dawley rats (8-weeks old, male). One week post-operation, recombined Fc-ELA-32 protein was administrated by subcutaneous injection at the dosage of 300 μg/kg bodyweight/day for two weeks. Phosphate-buffered saline (PBS) was used as the control. One week after the administration or at the end of the four weeks of MI, cardiac performance was evaluated by a pressure transducer which was inserted retrograde from the right carotid artery to the left ventricle cavity. Heart tissue samples were taken and fixed with 4% paraformaldehyde for 24 hours and then embedded in paraffin and sectioned for histopathologic examination.
Apoptosis was assessed by terminal deoxynucleotidyl transferase-mediated dUTP nick end labeling (TUNEL) and caspase-3 activity assay. […] TUNEL-positive nuclei in the LV free wall were counted within a 4-mm^2 square of field. […]
Masson staining which specifically stains collagens in blue was conducted on tissue sections of the infarcted heart area. Collagen volume fraction (CVF) is calculated by dividing of the blue stained area, which scattered between the surviving myocytes and around the blood vessels by the total area. […]

Data set [2] deals with C57/BL mice. Description: MI-induced heart failure by coronary artery ligation, echocardiography. The class given is in vivo, mouse. On the procedure: C57/BL wild type mice at age of 14-16 months old were used. Mice were subjected to either MI by permanent ligation or sham treatment with a loose suture of the proximal left anterior descending (LAD) coronary artery under general anesthesia by 2% isoflurane inhalation, and mechanical ventilation via oral intubation. Left thoracotomy in the 3-4 intercostal space was performed and the pericardium was opened to expose the LV and the LAD. The artery was circled a 8-0 silk suture, and then either ligated permanently or remained loose (sham).
Twelve to 14 mice were used in each group.
Data were calculated with the accepted formulae, which have been validated in mice.
Coronary artery ligation (CAL) is a well-used procedure to create a mouse model of acute myocardial infarction (MI) and heart failure (HF). […] Echocardiography was conducted to access heart function before the procedure (baseline), and at 1 week and 5 weeks post-MI.

For data set [3], the system named is aldosterone synthase CYP11B2. Description: Ang II-induced aldosterone synthase gene expression (qPCR) in HAC15 cells. Format: cell-based, human. The note with it: ELA 50 nM, Ang II 10 nM, 47 hours. Background: Real-time PCR tracks product formation cycle by cycle.
Data set [4] has as its system APJ. In words: qPCR of APJ mRNA in mice infused with ELA. The class given is in vivo, mouse.
The subject of data set [5] is mouse aortic rings. Description: Endothelium-dependent and -independent vasorelaxation of aortic rings. Particulars: for decrease of relaxation by removal of endothelium: denuded vs endothelium-intact vessels. On the procedure: Aortas were isolated from 8-10 weeks male wild-type C57BL/6 mice, cut into 3-mm rings and mounted in organ chambers (PowerLab, AD Instruments, CO, USA) in Kreb's buffer as described previously (11, 12). The contractile response was elicited by vasoconstrictor U46619 (30 nM) to produce contraction. […] In some preparations, the endothelium was mechanically removed from denuded arteries by gentle rubbing off the intimal surface with a wooden stick.
Apelin is reported to relax vascular tone (14) and lower blood pressure. […] The aortic rings were induced to contraction with vasoconstrictor U46619 (final concentration, 30 nM).
To further determine whether nitric oxide (NO) participated in the relaxation, the blood vessels were pretreated with L-NAME, an NO production inhibitor. […] The effect of apelin-13 on blood vessels was studied in parallel for comparison.

Data set [6] has as its system human pluripotent stem cells (PSCs). Description: Cardiomyocyte differentiation from pluripotent stem cells. Format: cell-based. The note with it: data not shown. From the text:
The question of whether ELA-APJ promotes human pluripotent stem cells (PSCs) into mesoderm derivatives including mesenchymal stem cells, adipocytes and cardiomyocytes was studied. […] Without being bound by theory, the kidney is a crucial organ that maintains circulation homeostasis.

Data set [7] has as its system HUVECs. Description: In vitro angiogenesis (tube formation) assay. Format: cell-based, human. On the procedure:
Tube formation assay for angiogenesis was conducted in 24-well plates were coated with 50 μl of Geltrex (Life Technologies, A14133-02) and left for polymerization by incubation for 1 hour at 37° C. […] Quantification of tube formation was performed after 10 hours of culture by calculating the number of branching point formed in each well under an inverted phase contrast photomicroscope (Olympus IX5O) as described^37.
ELA is a secreted hormone and expressed in adult kidney and prostate, and may, therefore, circulate in blood. […] Vascular tube formation assay is a well-used in vitro study to assess angiogenic factors and conditions in which vascular cells, e.g., human umbilical […] endothelial cells (HUVECs), can form tube-like structures under proangiogenic conditions in culture wells coated with Geltrex containing extra-cellular matrix. The number of branch points was an indicator of the strength of angiogenic stimuli.

For data set [8], the system named is human cardiomyocytes. In words: Hypoxia-induced apoptosis (TUNEL) in cardiomyocytes from human pluripotent stem cells. The class given is cell-based. The note with it: ELA 0.5 μM. From the text:
Cellular mechanisms of cardioprotection in MI include the less cell death due to necrosis and apopotosis, increased angiogenesis and reduced fibrosis. […] Apelin is reported to protect against glucose deprivation-induced apoptosis in rat neonatal cardiomyocytes and to increase Akt and mTOR phosphorylation.

Data set [9] has as its system C57/BL6 mice. Description: Diuresis in anesthetized mice. Format: in vivo, mouse. The note with it: 200 nmol/kg intravenously, one hour collection vs baseline hour. From the text: Four male C57/BL6 mice aged from 10 to 12 weeks were anesthetized with pentobarbital and then placed on a heated table to maintain body temperature and tracheotomized. Catheters were inserted into the external jugular veins for infusing normal saline to replace fluid loss and anesthesia, and into carotid artery for measuring blood pressure and heart rates. Urine was collected via a suprapubic cystostomy (PE-50-flanged end). After a 30-min stabilization period, urine was collected for a period of one hour as a baseline volume.

The subject of data set [10] is empty vector control CHO-K 1 cells. In words: Parallel control experiments (cAMP, ERK, calcium) in empty vector cells. The class given is cell-based, Chinese hamster. Particulars: cells transduced with empty vector control viruses. From the text:
Activation of APJ is known to result in a decrease of cAMP production, stimulation of ERK and increase in intercellular calcium mobilization (13). […] APJ-over-expressing and empty vector control CHO-K 1 cells were used in the studies. APJ expression was confirmed by RT-PCR. […] The response was dose-dependent up to the concentration of 10^−5M (FIG. 3C, lower panel).

For data set [11] the following is noted: mature ELA hormone; cited from earlier work.
Where [12] appears, read: endothelium-intact vessels, contracted with U46619 30 nM.

For `CSCC[C@H](NC(=O)[C@@H](NC(=O)[C@H](CC(C)C)NC(=O)[C@H](CC(N)=O)NC(=O)[C@@H](NC(=O)[C@@H]1CCCN1C(=O)[C@H](CCCNC(=N)N)NC(=O)[C@@H](N)CCC(N)=O)C(C)C)[C@@H](C)O)C(=O)N[C@@H](CCCNC(=N)N)C(=O)N[C@@H](CCCNC(=N)N)C(=O)N[C@@H](CCCCN)C(=O)N[C@@H](CC(C)C)C(=O)N[C@@H](CCCNC(=N)N)C(=O)N[C@@H](CCCCN)C(=O)N[C@@H](Cc1c[nH]cn1)C(=O)N[C@@H](CC(N)=O)C(=O)N[C@H]1CSSC[C@@H](C(=O)N[C@@H](CCSC)C(=O)N2CCC[C@H]2C(=O)N[C@@H](CC(C)C)C(=O)N[C@@H](Cc2c[nH]cn2)C(=O)N[C@@H](CO)C(=O)N[C@@H](CCCNC(=N)N)C(=O)N[C@H](C(=O)N2CCC[C@H]2C(=O)N[C@@H](Cc2ccccc2)C(=O)N2CCC[C@H]2C(=O)O)C(C)C)NC(=O)[C@H](CCCNC(=N)N)NC(=O)[C@H](CCCNC(=N)N)NC(=O)[C@H](CCC(N)=O)NC(=O)[C@H](CC(C)C)NC1=O` [ELA, Elabela], the “TUNEL green-labeled apoptotic cells in heart sections” value in data set [1] is “much less green-labeled cells”. In data set [2] (MI mice, ELA group, Baseline), this molecule showed an FS_LVD of 29.65 ± 4.16%, an FS_LVPW of 30.36 ± 3.65%, an IVSd of 0.61 ± 0.05 mm and an IVSs of 0.99 ± 0.04 mm. In data set [2] (MI mice, ELA group, Baseline), this molecule displayed an LVDd of 3.87 ± 0.20 mm, an LVDs of 2.68 ± 0.11 mm, an LVEF of 61.84 ± 7.39% and an LVPWd of 0.70 ± 0.03 mm. The molecule also yielded an LVPWs in [2] (MI mice, ELA group, Baseline) of 1.01 ± 0.04 mm. In data set [2] (MI mice, ELA infusion, Week 5), this molecule gave an FS_LVD of 22.68 ± 1.21 %, an FS_LVPW of 22.46 ± 4.49%, an IVSd of 0.73 ± 0.07 mm and an IVSs of 0.96 ± 0.11 mm. Moreover, in data set [2] (MI mice, ELA infusion, Week 5), the LVDd came to 4.48 ± 0.17 mm, the LVDs turned out to be 3.47 ± 0.16 mm, the LVEF is on record as 45.65 ± 2.16 % and the LVPWd is 0.75 ± 0.05 mm. This molecule also came in with an LVPWs in data set [2] (MI mice, ELA infusion, Week 5) of 0.97 ± 0.04 mm. In [2] (MI mice, ELA vs vehicle), the “degree of left ventricular dilation and contractile dysfunction” value was “significantly mitigated”. In addition, in [2] (MI mice, one-month experimental period, control three of nine), the “mice died during the experimental period” value is “one of eight”. For the same molecule, the “heart performance in sham op animals, vehicle vs ELA” value in [2] (sham op mice) was “no statistical difference”. Moreover, in data set [3], the “Ang II-induced gene expression of aldosterone synthase” value is listed as “significantly suppressed”. In [4], the “APJ mRNA expression” value is “tended to decrease”. Besides, in data set [5], the “decrease of relaxation by removal of endothelium” value is “about 20%”. For the same molecule, the maximum relaxation in data set [5] (setting [12]) is 73.7%. Moreover, in data set [5] (pretreated with 1 mM L-NAME), the “relaxation, L-NAME-treated vs none-treated vessels” value is “No significant difference”. Besides, in data set [6], the “cardiomyocyte differentiation from PSCs” value is on record as “potent inducer of cardiomyocyte differentiation”. For the same molecule, the “formation of tubular structures” value in [7] (APJ-knock down HUVECs) is “not effective”. The “increase in number of branch points” value in data set [7] (ELA 0.1 μM) is on record as 71.9%. In addition, the “increase in number of branch points” value in [7] (ELA 0.5 μM) worked out at 222.8%. Also, in data set [7] (ELA 1 μM), the “increase in number of branch points” value came out at 266.7%. The “number of TUNEL-stained cells” value in data set [8] is reported as “significantly reduced”. Besides, in data set [9], the urine volume result is “increased by about one fold”. Further, the “changes in cAMP, ERK ½ and calcium assays in empty vector control cells” value in [10] is recorded as “no meaningful changes”. In addition, the isoelectric point entry in data set [11] was “exceeding 12”.

For the molecule apelin-13 [reference compound], the maximum relaxation is recorded as 31% in [5] (denuded (endothelium removed) vessels) and 79% in data set [5] (setting [12]). Also, the “decrease of relaxation by removal of endothelium” value in data set [5] is 48%.

The record behind these values is patent publication US10463716B2 (UNIVERSITY OF MARYLAND, BALTIMORE, priority 2014, dated 2019).
